Results on one compound are retold here after publication PMC5351967, “Blue-light induced accumulation of reactive oxygen species is a consequence of the Drosophila cryptochrome photocycle” (PLoS ONE, 2017).

This assay addresses T1, DmCry (Drosophila melanogaster, UniProt O77059).
T1 construct: gene cry
In words: UV-visible absorption spectroscopy of protein-bound flavin, photoreduction and dark reoxidation. The settings on record: co-purified cofactor; 50 mM phosphate pH 7.5, 10 mM beta-mercaptoethanol, 21 °C; blue light. In kind it is binding.

T1 sequence (O77059 whole entry): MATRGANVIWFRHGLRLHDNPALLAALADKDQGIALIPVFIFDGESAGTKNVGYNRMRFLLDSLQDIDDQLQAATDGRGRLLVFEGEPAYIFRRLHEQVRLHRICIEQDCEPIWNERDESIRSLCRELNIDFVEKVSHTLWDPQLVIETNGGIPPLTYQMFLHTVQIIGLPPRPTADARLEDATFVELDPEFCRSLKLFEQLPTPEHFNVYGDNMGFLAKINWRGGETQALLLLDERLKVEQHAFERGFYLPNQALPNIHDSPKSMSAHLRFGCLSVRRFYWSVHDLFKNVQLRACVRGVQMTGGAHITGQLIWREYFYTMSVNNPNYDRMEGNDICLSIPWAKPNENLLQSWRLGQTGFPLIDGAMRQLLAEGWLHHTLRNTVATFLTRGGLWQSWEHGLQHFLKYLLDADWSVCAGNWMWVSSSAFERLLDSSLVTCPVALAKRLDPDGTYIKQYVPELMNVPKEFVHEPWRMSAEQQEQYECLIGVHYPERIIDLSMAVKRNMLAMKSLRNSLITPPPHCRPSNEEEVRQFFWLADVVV

In the case of `Cc1cc2nc3c(=O)[nH]c(=O)nc-3n(C[C@H](O)[C@H](O)[C@H](O)COP(=O)(O)OP(=O)(O)OC[C@H]3O[C@@H](n4cnc5c(N)ncnc54)[C@H](O)[C@@H]3O)c2cc1C` [FAD], the “UV-visible absorption spectroscopy of protein-bound flavin, photoreduction and d” value is on record as “Flavin reduction to the anionic radical (FAD^•-) redox form could then be observed”.
